Measurements taken from US20260355199A1, “COMPOSITIONS AND METHODS FOR TREATING OR PREVENTING NONALCOHOLIC STEATOHEPATITIS (NASH), ANOREXIA, DEPRESSION, ENDOMETRIOSIS, AND OTHER DISEASES OR DISORDERS” (priority 2022, published 2026).
“Also recorded” adds a separate entry of the source.

Columns and labels:
TET3 and TET2 mRNA = TET3 and TET2 mRNA in human MDMs; format: cell-based; parameters: TET3 and TET2 mRNA levels: dose or concentration left out as unconfirmed; conditions: 24 h
Experimental: For siRNA transfection in a 24-well plate scale of MDMs, NT siRNA or TET3 siRNA (4392420/s47239, Ambion) was mixed with 25 μL of OPTI-MEM by gentle pipetting. In parallel, 1.5 μL of Lipofectamine RNAiMAX was mixed with 25 μL of OPTI-MEM by gentle pipetting. Following 5 min of incubation at RT, the resulting 50 μl of transfection solution was added to each well of cells containing 450 μL of growth media.
Bobcat339 Treatment of Cultured Cells Bobcat339 powder (Sigma-Aldrich, SML2611) was freshly dissolved in DMSO at a concentration of 5 mM and filtered through a 0.22 micron. […]
For cultured MDMs, cells were primed with CM-Endo or TGF-β1 (PeproTech, 100-21) for 36-48 h (to increase TET3 expression) before Bobcat339 treatment.
Total RNAs were extracted from cells using PureLink RNA Mini Kit. 0.5-1 μg total RNA was reverse transcribed to cDNA in a reaction volume of 20 μL using PrimeScript RT Reagent Kit. Real-time quantitative PCR was performed in a 15 μL reaction volume containing 0.5-1 μL of cDNA using SsoAdvanced Universal SYBR Green Supermix in a Bio-Rad iCycler. Gene expression levels were normalized against RPLP0.

[1] = tested on: murine model of endometriosis; experiment: Surgically induced murine model of endometriosis; format: in vivo, mouse
Experimental: Female mice were randomly divided into three groups (sham, endometriosis treated with vehicle, and endometriosis treated with Bobcat) and subjected to surgery (week 1) to induce endometriosis or sham (FIG. 22A). The first once-a-week intraperitoneal (i.p.) injection of Bobcat339 (or vehicle) at a dose of 2.5 mg/kg was performed on week 3, followed by euthanasia and blood and tissue collection at week 9.
Given that Bobcat339 degrades TET3 inducing apoptosis (FIG. 26) and that myeloid-specific Tet3 ablation attenuates endometriosis (FIG. 28A through FIG. 28C), studies were performed to test whether Bobcat339 would elicit therapeutic effects on endometriosis. Thus, female mice were randomly divided into three groups (sham, endometriosis treated with vehicle, and endometriosis treated with Bobcat339) and subjected to surgery (week 0) to induce endometriosis or sham (FIG. 28D). The first once-a-week intraperitoneal (i.p.) injection of Bobcat339 (or vehicle) at a dose of 2.5 mg/kg body weight was performed on week 2, followed by euthanasia and blood and tissue collection on week 8. The dose of 2.5 mg/kg was chosen based on the previous studies showing no discernible liver toxicity in mice (Lv et al., 2023, Proc Natl Acad Sci USA, In press).
As Bobcat339 destabilized TET3, thus promoting macrophage apoptosis, additional studies tested whether Bobcat339 inhibits endometriosis (FIG. 25). Female mice were randomly divided into three groups (sham, endometriosis treated with vehicle, and endometriosis treated with Bobcat339) and subjected to surgery (week 0) to induce endometriosis or sham (FIG. 26). The first once-a-week intraperitoneal (i.p.) injection of Bobcat339 (or vehicle) at a dose of 3 mg/kg body weight was performed on week 2, followed by euthanasia and sample collection on week 8.
Bobcat339 powder was freshly dissolved in DMSO at a concentration of 50 mg/mL and filtered through a 0.22 micron filter. It was further diluted with 1×PBS to a final concentration of 0.5 mg/mL before injections. Mice were injected intraperitoneally with Bobcat339 at 2.5 mg/kg body weight.
Briefly, uterus horns were removed from wild-type female donor mice, opened longitudinally and cut into fragments of 3 mm. Two uterine segments were sutured to each right and left parietal peritoneum of recipient mice (6-7 weeks old) with absorbable suture. Sham surgeries were performed for sham group, using the same surgical procedure without the introduction of extraneous uterine tissue. The experimental model was allowed to develop for more than 4 weeks. Development of the model was confirmed by opening the abdominal cavity and measuring the size of endometriotic lesions both macroscopically and histologically.

How did the “TET3 and TET2 mRNA” value (TET3 and TET2 mRNA; 10 μM) turn out when `Nc1nc(=O)n(-c2cccc(-c3ccccc3)c2)cc1Cl` [Bobcat339, 4-Amino-1-[1,1′-biphenyl]-3-yl-5-chloro-2(1H)-pyrimidinone] was run?
The value was “did not alter the mRNA levels of TET3 and TET2; also recorded: no significant differences in their expression”.

And the “TET3 and TET2 mRNA levels” value (TET3 and TET2 mRNA)?
Its value is “did not alter the mRNA levels of TET3 and TET2”.

What about the “TET3-expressing (CD163 double positive) macrophages in lesions” value ([1]; 2.5 mg/kg i.p. once a week) of the same compound?
The value was “depletion of TET3/CD163-double positive cells; also recorded: depletion of TET3-expressing macrophages”.

And the body weight ([1]; 2.5 mg/kg i.p. once a week)?
Its body weight is “no statistically significant differences were observed in body weight; also recorded: nor was there a significant difference in body weight”.

What about the endometriosis lesion volume ([1]; 2.5 mg/kg i.p. once a week) of the same compound?
The endometriosis lesion volume was “significantly reduced the lesion volume; also recorded: a significant decrease in lesion volume; also recorded: a significantly decrease in lesion volume”.

And the “food intake / appetite in endometriosis mice” value ([1]; 2.5 mg/kg i.p. once a week)?
Its value is “the decrease was not observed; also recorded: improved appetite”.

And the “IL-1b and IL-6 expression in CD163+ macrophage-enriched areas” value ([1]; 3 mg/kg i.p. once a week)?
Its value is “a dramatic reduction in the expression of IL-1b and IL-6”.

What about the body weight ([1]; 3 mg/kg i.p. once a week) of the same compound?
Its body weight is “nor was there a significant difference in body weight”.

And the endometriosis lesion volume ([1]; 3 mg/kg i.p. once a week)?
The endometriosis lesion volume was “significantly reduced the lesion volume”.

What about the “number of TET3-overexpressing CD163+ macrophages” value ([1]; 3 mg/kg i.p. once a week) of the same compound?
The value was “a marked decrease in the number of TET3-overexpressing CD163^+ macrophages”.
